Measurements taken from US20250326738A1, “MALT1 Modulators and Uses Thereof” (Rarefied Biosciences, Inc., priority 2022, published 2025).

Key:
[1] = molecular target: T1, full length MALT1 (Homo sapiens, UniProt Q9UDY8); test: MALT1 biochemical assay (fluorogenic peptide substrate cleavage); conditions: full length MALT1, 15 nM enzyme, 30 μM peptide substrate, 30 min pre-incubation, 60 min reaction; mean if tested more than once
T1 construct: measuring enzymatic activity of full length MALT1 at varying concentrations of compound
T1 sequence (Q9UDY8 1-824): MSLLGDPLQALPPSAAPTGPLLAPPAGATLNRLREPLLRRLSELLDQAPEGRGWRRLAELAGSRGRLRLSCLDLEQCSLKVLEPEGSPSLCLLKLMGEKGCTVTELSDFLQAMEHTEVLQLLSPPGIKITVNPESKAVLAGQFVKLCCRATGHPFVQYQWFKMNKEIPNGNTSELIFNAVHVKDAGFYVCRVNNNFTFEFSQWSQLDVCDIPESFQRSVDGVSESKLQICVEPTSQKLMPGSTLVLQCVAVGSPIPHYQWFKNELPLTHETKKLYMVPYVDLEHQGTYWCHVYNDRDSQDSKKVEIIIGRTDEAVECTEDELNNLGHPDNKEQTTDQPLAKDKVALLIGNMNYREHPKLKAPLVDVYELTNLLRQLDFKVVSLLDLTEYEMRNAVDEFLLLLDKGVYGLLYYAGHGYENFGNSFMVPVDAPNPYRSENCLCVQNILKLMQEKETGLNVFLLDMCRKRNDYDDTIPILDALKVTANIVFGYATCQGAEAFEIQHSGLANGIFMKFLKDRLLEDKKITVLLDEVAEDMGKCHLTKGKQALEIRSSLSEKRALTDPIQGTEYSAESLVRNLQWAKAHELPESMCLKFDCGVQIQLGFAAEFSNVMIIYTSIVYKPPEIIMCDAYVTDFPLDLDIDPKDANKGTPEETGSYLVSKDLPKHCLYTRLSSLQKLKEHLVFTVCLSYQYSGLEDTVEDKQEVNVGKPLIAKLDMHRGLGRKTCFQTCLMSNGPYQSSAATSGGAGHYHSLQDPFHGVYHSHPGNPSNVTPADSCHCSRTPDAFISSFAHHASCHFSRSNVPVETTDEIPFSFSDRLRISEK
Procedure: Inhibitor potency was evaluated by measuring enzymatic activity of full length MALT1 at varying concentrations of compound. The enzymatic assay consists of a single substrate reaction that monitors the release of a fluorescent dye upon cleavage of the peptide substrate. […] The assay buffer consists of 50 mM Hepes, pH 7.5, 0.8 M sodium citrate, 1 mM DTT, 0.004% tween-20, and 0.005% bovine serum albumin (BSA). […] The reaction was quenched after 60 minutes with the addition of iodoacetate at a final concentration of 10 mM. Total fluorescence was measured using an Envision (PerkinElmer) with fluorescence excitation at 485 nm and emission at 520 nm.
The reaction was initiated with the addition of 10 μL of peptide substrate. […] IC50 values were calculated by fitting the concentration-response curves to a four-parameter logistic equation in GraphPad Prism.
“N/A” indicates not tested.

[2] = system: Jurkat IL-2; test: Jurkat IL-2 assay (IL-2 inhibition by ELISA after anti-CD3/28/2 stimulation); format: cell-based; conditions: Jurkat clone E6.1, IL-2 in supernatant, 30 min pre-incubation, anti-CD3/28/2 stimulation 24 hours; mean if tested more than once
Procedure: Inhibition was determined in a cell-based assay using Jurkat (ATCC, clone E6.1), an immortalized T-cell line, exposed to a dose response of compound and assessed for viability, and IL-2 inhibition by ELISA. Cells were cultured in RPMI/10% FBS (Invitrogen 11875093, Atlanta Biologicals S12450H), maintained below 3E6/mL and only used in assays while below passage 25. Compounds were stamped by ECHO onto 384w plates (PerkinElmer Culturplate, 6007680). The cells were plated in fresh media on top of compound and incubated for 30 minutes before stimulation with soluble anti-CD3/28/2 (Stemcell, 10970) for 24 hours. Supernatant was collected and assessed for IL-2 (MSD, 384w, L21SA-1). To assess viability of cells treated with compound, cells were lysed with CTG reagent (Promega, G7570), and measured by luminometer. […] IC50s calculated using 4-parameter fit in GraphPad Prism.
“N/A” indicates not tested. For a compound that was tested in more than one experiment, the result shown represents the mean value.

(1r,4S)—N—((S)-1-(4-((4-cyclopropyl-1,5-naphthyridin-3-yl)amino)phenyl)-2,2,2-trifluoroethyl)-N-methyl-4-(1H-tetrazol-5-yl)cyclohexane-1-carboxamide [Compound 3.1]
IC50 [1]: > 1000 nM | IC50 [2]: 100 to 1000 nM
